# *1 amine or outer side, *2 acyl side, *3 side chain or, on linkers, in order; H or OH if unused. Where a SMILES comes first, the peptide text is derived from it. Bridges are numbered along the chain shown (N, C = ends). [ ]: non-standard residue; d: D form. The star is where a group is joined. Ala(piperidin-4-yl) = O=C([C@H](CC1CCN([*:3])CC1)N[*:1])[*:2]; DOTA = O=C(O)CN1CCN(CC(=O)O)CCN(CC(=O)*)CCN(CC(=O)O)CC1; Phe(4-CF3) = N[C@@H](Cc1ccc(C(F)(F)F)cc1)C(=O)O; Trp(7-aza) = N[C@@H](Cc1c[nH]c2ncccc12)C(=O)O; Bip = N[C@@H](Cc1ccc(-c2ccccc2)cc1)C(=O)O; Phe(4-F) = N[C@@H](Cc1ccc(F)cc1)C(=O)O; 2Nal = N[C@@H](Cc1ccc2ccccc2c1)C(=O)O; NMetBuAla = CN[C@@H](CC(C)(C)C)C(=O)O; tBuAla = CC(C)(C)C[C@H](N)C(=O)O; Chg = N[C@H](C(=O)O)C1CCCCC1; Dab = NCC[C@H](N)C(=O)O; Dap = NC[C@H](N)C(=O)O; CH2 = C([*:1])[*:2]
# Molecular target: T1, DLL3 (Homo sapiens, UniProt Q9NYJ7)
# T1 sequence (Q9NYJ7 27-618): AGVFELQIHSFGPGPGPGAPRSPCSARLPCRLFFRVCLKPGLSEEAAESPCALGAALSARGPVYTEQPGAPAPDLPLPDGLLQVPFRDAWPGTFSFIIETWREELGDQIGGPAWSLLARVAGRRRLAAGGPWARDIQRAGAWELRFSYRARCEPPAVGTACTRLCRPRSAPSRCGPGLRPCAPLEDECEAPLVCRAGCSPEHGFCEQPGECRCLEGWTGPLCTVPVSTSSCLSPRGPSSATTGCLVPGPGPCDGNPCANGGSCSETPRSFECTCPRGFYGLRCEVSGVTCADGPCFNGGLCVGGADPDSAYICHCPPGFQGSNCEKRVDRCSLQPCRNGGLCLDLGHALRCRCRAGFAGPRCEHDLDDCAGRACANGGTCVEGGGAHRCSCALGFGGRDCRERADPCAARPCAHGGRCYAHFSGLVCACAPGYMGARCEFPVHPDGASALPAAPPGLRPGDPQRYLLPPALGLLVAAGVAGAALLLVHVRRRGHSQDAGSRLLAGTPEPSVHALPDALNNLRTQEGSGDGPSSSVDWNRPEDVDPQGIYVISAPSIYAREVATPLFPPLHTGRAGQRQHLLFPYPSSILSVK
# Assay: SPR KD, biotinylated human DLL3 on streptavidin chip (Table 8)
# Set-up: biotin (biotinylated)
# Details: biotinylated human DLL3 on streptavidin sensor chip, 25° C., 1:1 binding model; read-out: SPR KD
# From the text: Biotinylated target ligand human DLL3 was immobilized on a streptavidin sensor chip. A reference surface was set up for nonspecific binding and refractive index changes. […] Sensorgram curves were fitted with 1:1 binding model, and affinity and kinetic parameters were obtained using Biacore Insight evaluation 4.0. software.
row,Kd,Compound
1,1 to 10 nM,"CSCC[C@H](NC(C)=O)C(=O)N[C@@H](Cc1c[nH]c2ccccc12)C(=O)N[C@H](C(=O)N[C@H](C(=O)N[C@H]1CSSC[C@@H](C(=O)N[C@@H](Cc2c[nH]c3ccccc23)C(=O)N2CCC[C@H]2C(N)=O)NC(=O)[C@H](CC(=O)O)NC(=O)[C@H](Cc2cnc[nH]2)NC(=O)[C@H](Cc2c[nH]c3ccccc23)NC(=O)[C@H](CC(N)=O)NC(=O)[C@H](CC(N)=O)NC1=O)C1CCCCC1)[C@@H](C)O [compound 44, Ac-M-W-T-(Chg)-C(3)-N-N-W-H-D-C(3)-W-P-CONH2] (Ac-MWT[Chg]CNNWHDCWP-NH2; disulfide 5-11)"
2,10 to 100 nM,"CSCC[C@H](NC(C)=O)C(=O)N[C@@H](Cc1c[nH]c2ccccc12)C(=O)N[C@H](C(=O)N[C@@H](Cc1ccc2ccccc2c1)C(=O)N[C@H]1CSSC[C@@H](C(=O)N[C@@H](Cc2c[nH]c3ccccc23)C(=O)N2CCC[C@H]2C(N)=O)NC(=O)[C@H](CC(=O)O)NC(=O)[C@H](Cc2cnc[nH]2)NC(=O)[C@H](Cc2c[nH]c3ccccc23)NC(=O)[C@H](CC(N)=O)NC(=O)[C@H](CC(N)=O)NC1=O)[C@@H](C)O [compound 46, Ac-M-W-T-(2Nal)-C(3)-N-N-W-H-D-C(3)-W-P-CONH2] (Ac-MWT[2Nal]CNNWHDCWP-NH2; disulfide 5-11)"
3,1 to 10 nM,"CC[C@H](C)[C@H](NC(=O)[C@@H](NC(=O)[C@H](Cc1c[nH]c2ccccc12)NC(C)=O)[C@@H](C)O)C(=O)N[C@H]1CSSC[C@@H](C(=O)N[C@@H](Cc2c[nH]c3ccccc23)C(=O)N2CCC[C@H]2C(N)=O)NC(=O)[C@H](CC(=O)O)NC(=O)[C@H](Cc2c[nH]cn2)NC(=O)[C@H](Cc2ccc(F)cc2)NC(=O)[C@H](CC(N)=O)NC(=O)[C@H](CC(N)=O)NC1=O [compound 49, Ac-W-T-I-C(3)-N-N-(4Fluoro-F)-H-D-C(3)-W-P-CONH2] (Ac-WTICNN[Phe(4-F)]HDCWP-NH2; disulfide 4-10)"
4,1 to 10 nM,"CC[C@H](C)[C@H](NC(=O)[C@@H](NC(=O)[C@H](Cc1c[nH]c2ccccc12)NC(C)=O)[C@@H](C)O)C(=O)N[C@H]1CSSC[C@@H](C(=O)N[C@@H](Cc2c[nH]c3ccccc23)C(=O)N2CCC[C@H]2C(N)=O)NC(=O)[C@H](CC(=O)O)NC(=O)[C@H](Cc2c[nH]cn2)NC(=O)[C@H](Cc2ccc(C(F)(F)F)cc2)NC(=O)[C@H](CC(N)=O)NC(=O)[C@H](CC(N)=O)NC1=O [compound 50, Ac-W-T-I-C(3)-N-N-(4CF3-F)-H-D-C(3)-W-P-CONH2] (Ac-WTICNN[Phe(4-CF3)]HDCWP-NH2; disulfide 4-10)"
5,1 to 10 nM,"CC[C@H](C)[C@H](NC(=O)[C@@H](NC(=O)[C@H](Cc1c[nH]c2ccccc12)NC(C)=O)[C@@H](C)O)C(=O)N[C@H]1CSSC[C@@H](C(=O)N[C@@H](Cc2c[nH]c3ncccc23)C(=O)N2CCC[C@H]2C(N)=O)NC(=O)[C@H](CC(=O)O)NC(=O)[C@H](Cc2c[nH]cn2)NC(=O)[C@H](Cc2c[nH]c3ccccc23)NC(=O)[C@H](CC(N)=O)NC(=O)[C@H](CC(N)=O)NC1=O [compound 51, Ac-W-T-I-C(3)-N-N-W-H-D-C(3)-(7Aza-W)-P-CONH2] (Ac-WTICNNWHDC[Trp(7-aza)]P-NH2; disulfide 4-10)"
6,10 to 100 nM,"CC[C@H](C)[C@H](NC(=O)[C@@H](NC(=O)[C@H](Cc1c[nH]c2ccccc12)NC(C)=O)[C@@H](C)O)C(=O)N[C@H]1CSSC[C@@H](C(=O)N[C@@H](Cc2ccc(F)cc2)C(=O)N2CCC[C@H]2C(N)=O)NC(=O)[C@H](CC(=O)O)NC(=O)[C@H](Cc2c[nH]cn2)NC(=O)[C@H](Cc2c[nH]c3ccccc23)NC(=O)[C@H](CC(N)=O)NC(=O)[C@H](CC(N)=O)NC1=O [compound 52, Ac-W-T-I-C(3)-N-N-W-H-D-C(3)-(4Fluoro-F)-P-CONH2] (Ac-WTICNNWHDC[Phe(4-F)]P-NH2; disulfide 4-10)"
7,10 to 100 nM,"CC[C@H](C)[C@H](NC(=O)[C@@H](NC(=O)[C@H](Cc1c[nH]c2ccccc12)NC(C)=O)[C@@H](C)O)C(=O)N[C@H]1CSSC[C@@H](C(=O)N[C@@H](Cc2c[nH]c3ccccc23)C(=O)N2CCC[C@H]2C(N)=O)NC(=O)[C@H](CC(=O)O)NC(=O)[C@H](Cc2cnc[nH]2)NC(=O)[C@H](Cc2ccc(-c3ccccc3)cc2)NC(=O)[C@H](CC(N)=O)NC(=O)[C@H](CC(N)=O)NC1=O [compound 53, Ac-W-T-I-C(3)-N-N-(BIP)-H-D-C(3)-W-P-CONH2] (Ac-WTICNN[Bip]HDCWP-NH2; disulfide 4-10)"
8,100 to 300 nM,CC[C@H](C)[C@H](NC(=O)[C@@H](NC(=O)[C@H](Cc1c[nH]c2ccccc12)NC(C)=O)[C@@H](C)O)C(=O)N[C@H]1CCC(=O)NCC[C@@H](C(=O)N[C@@H](Cc2c[nH]c3ccccc23)C(=O)N2CCC[C@H]2C(N)=O)NC(=O)[C@H](CC(=O)O)NC(=O)[C@H](Cc2c[nH]cn2)NC(=O)[C@H](Cc2c[nH]c3ccccc23)NC(=O)[C@H](CC(N)=O)NC(=O)[C@H](CC(N)=O)NC1=O [compound 71] (Ac-WTIENNWHD[Dab]WP-NH2; lactam 4-10)
9,100 to 300 nM,CC[C@H](C)[C@H](NC(=O)[C@@H](NC(=O)[C@H](Cc1c[nH]c2ccccc12)NC(=O)[C@H](CCSC)NC(C)=O)[C@@H](C)O)C(=O)N[C@H]1CSSC[C@@H](C(=O)N[C@@H](Cc2c[nH]c3ccccc23)C(=O)N2CCC[C@H]2C(N)=O)NC(=O)[C@H](CC(=O)O)NC(=O)[C@@H](C)NC(=O)[C@H](Cc2c[nH]c3ccccc23)NC(=O)[C@H](CC(N)=O)NC(=O)[C@H](CC(N)=O)NC1=O [compound 72] (Ac-MWTICNNW[dA]DCWP-NH2; disulfide 5-11)
10,< 1 nM,CC(=O)N[C@@H](Cc1c[nH]c2ccccc12)C(=O)N[C@H](C(=O)N[C@@H](CC(C)(C)C)C(=O)N[C@H]1CSCSC[C@@H](C(=O)N[C@@H](Cc2c[nH]c3ccccc23)C(=O)N2CCC[C@H]2C(N)=O)NC(=O)[C@H](CC(=O)O)NC(=O)[C@H](CCCCNC(=O)CN2CCN(CC(=O)O)CCN(CC(=O)O)CCN(CC(=O)O)CC2)NC(=O)[C@H](Cc2ccc3ccccc3c2)NC(=O)[C@H](CC(N)=O)NC(=O)[C@H](CC2CCNCC2)NC1=O)[C@@H](C)O [compound 94] (Ac-WT[tBuAla]C[Ala(piperidin-4-yl)]N[2Nal]K(DOTA)DCWP-NH2; linker 4-10 via CH2)
11,100 to 300 nM,"CC[C@@H](C)[C@@H](NC(=O)[C@H](NC(=O)[C@@H](Cc1c[nH]c2ccccc12)NC(C)=O)[C@H](C)O)C(=O)N[C@H]1CC(=O)NCC[C@@H](C(=O)N[C@@H](Cc2c[nH]c3ccccc23)C(=O)N2CCC[C@H]2C(N)=O)NC(=O)[C@H](CC(=O)O)NC(=O)[C@H](Cc2c[nH]cn2)NC(=O)[C@H](Cc2c[nH]c3ccccc23)NC(=O)[C@H](CC(N)=O)NC(=O)[C@H](CC(N)=O)NC1=O [compound 95, Ac-W-T-I-(L-Asp)*-N-N-W-H-D-(L-2,4-Dab)*-W-P-CONH2 (* denotes lactam between side chains between L-Asp and L-2,4-Dab)] (Ac-[dW][dT][dI]DNNWHD[Dab]WP-NH2; lactam 4-10)"
12,100 to 300 nM,"CC[C@H](C)[C@H](NC(=O)[C@@H](NC(=O)[C@H](Cc1c[nH]c2ccccc12)NC(C)=O)[C@@H](C)O)C(=O)N[C@H]1CC(=O)NC[C@@H](C(=O)N[C@@H](Cc2c[nH]c3ccccc23)C(=O)N2CCC[C@H]2C(N)=O)NC(=O)[C@H](CC(=O)O)NC(=O)[C@H](Cc2c[nH]cn2)NC(=O)[C@H](Cc2c[nH]c3ccccc23)NC(=O)[C@H](CC(N)=O)NC(=O)[C@H](CC(N)=O)NC1=O [compound 120, Ac-W-T-I-(L-Asp)*-N-N-W-H-D-(L-Dap)*-W-P-CONH2 (* denotes lactam between side chains between L-Asp and L-Dap)] (Ac-WTIDNNWHD[Dap]WP-NH2; lactam 4-10)"
13,< 1 nM,CC(=O)N[C@@H](Cc1c[nH]c2ccccc12)C(=O)N[C@H](C(=O)N(C)[C@@H](CC(C)(C)C)C(=O)N[C@H]1CSCSC[C@@H](C(=O)N[C@@H](Cc2c[nH]c3ccccc23)C(=O)N2CCC[C@H]2C(N)=O)NC(=O)[C@H](CC(=O)O)NC(=O)[C@H](CCCCNC(=O)CN2CCN(CC(=O)O)CCN(CC(=O)O)CCN(CC(=O)O)CC2)NC(=O)[C@H](Cc2ccc3ccccc3c2)NC(=O)[C@H](CC(N)=O)NC(=O)[C@H](CC2CCNCC2)NC1=O)[C@@H](C)O [compound 153] (Ac-WT[NMetBuAla]C[Ala(piperidin-4-yl)]N[2Nal]K(DOTA)DCWP-NH2; linker 4-10 via CH2)
14,100 to 300 nM,"CC[C@H](C)[C@H](NC(=O)[C@@H](NC(=O)[C@H](Cc1ccc(F)cc1)NC(C)=O)[C@@H](C)O)C(=O)N[C@H]1CSSC[C@@H](C(=O)N[C@@H](Cc2c[nH]c3ccccc23)C(=O)N2CCC[C@H]2C(N)=O)NC(=O)[C@H](CC(=O)O)NC(=O)[C@H](Cc2cnc[nH]2)NC(=O)[C@H](Cc2c[nH]c3ccccc23)NC(=O)[C@H](CC(N)=O)NC(=O)[C@H](CC(N)=O)NC1=O [compound 214, Ac-(4Fluoro-F)-T-I-C(3)-N-N-W-H-D-C(3)-W-P-CONH2] (Ac-[Phe(4-F)]TICNNWHDCWP-NH2; disulfide 4-10)"

# Source: patent US20250049970A1, “DLL3 TARGETING PEPTIDES AND CONSTRUCTS THEREOF” (MARIANA ONCOLOGY INC., priority 2023, published 2025)
